Key:
[1] = biological target: T1, murine mastocytoma P815 cells overexpressing hTDO2 (Homo sapiens, UniProt P48775); assay: Cellular assay for TDO2 activity, hTDO2-overexpressing P815 cells; format: cell-based; conditions: P815 cells overexpressing hTDO2, overnight incubation, kynurenine in supernatant
T1 construct: expressed in transfected cells; host or cells: murine mastocytoma P815 cells
Protocol: The assay (adapted from Pilotte L et al., Proc Natl Acad Sci USA, 2012, 109(7), 2497-502) was performed in 96-well flat bottom plates seeded with murine mastocytoma P815 cells overexpressing hTDO2 (prepared as described in Pilotte et al., PNAS, 2012, 109(7), 2497-2502), at a concentration of 5×10^4 cells/well in a final volume of 200 μL. To determine TDO or IDO activity, the cells were incubated overnight at 37° C. at 5% CO2 in IMDM (Invitrogen) supplemented with 2% FBS and 2% penicillin/streptomycin in the presence of the compounds of the present invention, at different concentrations. The cells may be obtained from the American Type Cuylture Collecion [ATCC® TIB-64™ or commercially, e.g., from Sigma-Aldrich or Life Technologies.]
The plates were then centrifuged 5 min at 1000 rpm, and 100 μL of the supernatant were collected in a conical plate, 30 uL of TCA 30% were added and a further centrifugated at 3000×g for 10 minutes. 100 μL of the supernatant were collected in a flat bottomed plate and 100 μL of 2% (w/v) 4-(dimethylamino)-benzaldehyde in acetic acid and incubated for 5 min at room temperature. Kynurenine concentrations were determined by measuring the absorbance at 480 nm. A standard curve was made with pure kynurenine. The TDO activity was measured as described above using ten serial concentrations of the compounds of the present invention. Data were fitted using the Prism™ software (GraphPad Software, Inc.) using standard parameters.

[2] = biological target: T2, human glioblastoma A172 cells, naturally expressing hTDO2 (Homo sapiens, UniProt P48775); assay: Cellular assay for TDO2 activity, A172 cells; format: cell-based; conditions: overnight incubation, kynurenine in supernatant
T2 construct: human glioblastoma A172 cells, naturally expressing hTDO2; endogenous in cells; host or cells: human glioblastoma A172 cells (ATCC CRL-1620)
How it was run: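 A172 human glioblastoma cells naturally expressing TDO2, seeded at 1.25×10^4 cells/well, were incubated overnight at 37 °C in IMDM with 2% FBS and ten serial compound concentrations. Supernatant kynurenine, after TCA precipitation and Ehrlich's reagent, was read at 480 nm against a kynurenine standard curve; data curve-fitted.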

[3] = biological target: T3, human recombinant TDO2 enzyme (Homo sapiens, UniProt P48775); assay: Assay for TDO2 enzymatic activity determination; format: biochemical; conditions: human recombinant TDO2, L-Trp 1 mM, kynurenine absorbance at 480 nm
T3 construct: made in house
Protocol: To measure the TDO2 activity, the procedure described in Dolusic et al. J. Med. Chem.; 2011, 54, […] was adapted: the reaction mixture contained (final concentrations) potassium phosphate buffer (50 mM, pH 7.5), ascorbic acid (0.25 M), methylene blue (0.125 μM), catalase (40 units/mL, from bovine liver, Sigma), and human recombinant TDO2 enzyme (prepared as described in Dolusic et al. J. Med. Chem.; 2011, 54, 5320-5334; 0.9 μg) without or with the compounds of the present invention at the indicated concentrations (total volume 112.5 μL). The reaction was initiated by the addition of 37.5 μL of L-Trp (final concentration 1 mM) at room temperature. The reaction was conducted at room temperature during one hour and stopped by the addition of 30 μL of 30% (w/v) trichloroacetic acid.
To convert N-formylkynurenine into kynurenine, the reaction mixture was incubated at 65° C. for 30 min. Then 150 μL of the reaction mixture was mixed with 120 μL of 2.5% (w/v) 4-(dimethylamino)-benzaldehyde in acetic acid and incubated for 5 min at room temperature. Kynurenine concentrations were determined by measuring the absorbance at 480 nm. A standard curve was made with pure kynurenine. The TDO activity was measured as described above using ten serial concentrations of the compounds of the present invention. Data were fitted using the Prism™ software (GraphPad Software, Inc.) using standard parameters.

T3 sequence (P48775 whole entry): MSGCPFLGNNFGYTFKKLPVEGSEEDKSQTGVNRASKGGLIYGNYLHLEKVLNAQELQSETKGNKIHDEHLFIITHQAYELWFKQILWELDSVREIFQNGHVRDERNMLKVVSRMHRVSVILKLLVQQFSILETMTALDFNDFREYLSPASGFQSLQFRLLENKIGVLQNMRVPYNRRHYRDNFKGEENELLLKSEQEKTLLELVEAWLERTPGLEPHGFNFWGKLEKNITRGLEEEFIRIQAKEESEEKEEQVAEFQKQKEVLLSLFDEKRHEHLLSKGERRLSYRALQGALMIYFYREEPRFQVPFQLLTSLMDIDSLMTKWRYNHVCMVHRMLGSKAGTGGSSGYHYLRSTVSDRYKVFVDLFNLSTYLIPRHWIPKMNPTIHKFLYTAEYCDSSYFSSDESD
T1 sequence (P48775 whole entry): as above
T2 sequence (P48775 whole entry): as above

NCc1nc2ccc(-c3c[nH]c4cc(F)ccc34)cc2[nH]1 [Compound 27, (6-(6-fluoro-1H-indol-3-yl)-1H-benzo[d]imidazol-2-yl)methanamine]
IC50 [1]: 678 nM

CN(C)Cc1nc2ccc(-c3c[nH]c4cc(F)ccc34)cc2[nH]1 [Compound 28, 1-(6-(6-fluoro-1H-indol-3-yl)-1H-benzo[d]imidazol-2-yl)-N,N-dimethylmethanamine]
IC50 [1]: 1450 nM

CC(=O)NCc1nc2ccc(-c3c[nH]c4cc(F)ccc34)cc2[nH]1 [Compound 30, N-((6-(6-fluoro-1H-indol-3-yl)-1H-benzo[d]imidazol-2-yl)methyl)acetamide]
IC50 [1]: 896 nM

NCC(=O)NCc1nc2ccc(-c3c[nH]c4cc(F)ccc34)cc2[nH]1 [Compound 31, 2-amino-N-((6-(6-fluoro-1H-indol-3-yl)-1H-benzo[d]imidazol-2-yl)methyl)acetamide]
IC50 [1]: 2300 nM

CS(=O)(=O)NCc1nc2ccc(-c3c[nH]c4cc(F)ccc34)cc2[nH]1 [Compound 32, N-((6-(6-fluoro-1H-indol-3-yl)-1H-benzo[d]imidazol-2-yl)methyl)methanesulfonamide]
IC50 [1]: 460 nM

CN1CCN(Cc2nc3ccc(-c4c[nH]c5cc(F)ccc45)cc3[nH]2)CC1 [Compound 33, 6-(6-fluoro-1H-indol-3-yl)-2-((4-methylpiperazin-1-yl)methyl)-1H-benzo[d]imidazole]
IC50 [1]: 635 nM

CS(=O)(=O)N1CCN(Cc2nc3cc(-c4c[nH]c5cc(F)ccc45)ccc3[nH]2)CC1 [Compound 34, 5-(6-fluoro-1H-indol-3-yl)-2-((4-(methylsulfonyl)piperazin-1-yl)methyl)-1H-benzo[d]imidazole]
IC50 [1]: 863 nM

NCCc1nc2ccc(-c3c[nH]c4cc(F)ccc34)cc2[nH]1 [Compound 35, 2-(6-(6-fluoro-1H-indol-3-yl)-1H-benzo[d]imidazol-2-yl)ethanamine]
IC50 [1]: 689 nM

CC(=O)NCCc1nc2ccc(-c3c[nH]c4cc(F)ccc34)cc2[nH]1 [Compound 36, N-(2-(6-(6-fluoro-1H-indol-3-yl)-1H-benzo[d]imidazol-2-yl)ethyl)acetamide]
IC50 [1]: 1130 nM

CS(=O)(=O)NCCc1nc2ccc(-c3c[nH]c4cc(F)ccc34)cc2[nH]1 [Compound 37, N-(2-(6-(6-fluoro-1H-indol-3-yl)-1H-benzo[d]imidazol-2-yl)ethyl)methanesulfonamide]
IC50 [1]: 1530 nM

CS(=O)(=O)CCc1nc2cc(-c3c[nH]c4cc(F)ccc34)ccc2[nH]1 [Compound 38, 5-(6-fluoro-1H-indol-3-yl)-2-(2-(methylsulfonyl)ethyl)-1H-benzo[d]imidazole]
IC50 [1]: 505 nM | IC50 [2]: 512 nM

Fc1ccc2c(-c3ccc4nc(C5CCNCC5)[nH]c4c3)c[nH]c2c1 [Compound 39, 6-(6-fluoro-1H-indol-3-yl)-2-(piperidin-4-yl)-1H-benzo[d]imidazole]
IC50 [1]: 2860 nM

CS(=O)(=O)N1CCC(c2nc3ccc(-c4c[nH]c5cc(F)ccc45)cc3[nH]2)CC1 [Compound 40, 6-(6-fluoro-1H-indol-3-yl)-2-(1-(methylsulfonyl)piperidin-4-yl)-1H-benzo[d]imidazole]
IC50 [1]: 750 nM

CNCc1nc2cc(-c3c[nH]c4cc(F)ccc34)ccc2[nH]1 [Compound 44, 1-(5-(6-fluoro-1H-indol-3-yl)-1H-benzo[d]imidazol-2-yl)-N-methylmethanamine]
IC50 [1]: 345 nM

Fc1ccc2c(-c3ccc4[nH]c(CN5CCOCC5)nc4c3)c[nH]c2c1 [Compound 45, 4-((5-(6-fluoro-1H-indol-3-yl)-1H-benzo[d]imidazol-2-yl)methyl)morpholine]
IC50 [1]: 595 nM

Fc1ccc2c(-c3ccc4ocnc4c3)c[nH]c2c1 [Compound 47, 5-(6-fluoro-1H-indol-3-yl)benzo[d]oxazole]
IC50 [1]: 100 nM | IC50 [2]: 479 nM

Cc1nc2cc(-c3c[nH]c4cc(F)ccc34)ccc2o1 [Compound 48, 5-(6-fluoro-1H-indol-3-yl)-2-methylbenzo[d]oxazole]
IC50 [1]: 118 nM

Fc1ccc2c(-c3ccc4ncoc4c3)c[nH]c2c1 [Compound 53, 6-(6-fluoro-1H-indol-3-yl)benzo[d]oxazole]
IC50 [1]: 79 nM

Cc1nc2ccc(-c3c[nH]c4cc(F)ccc34)cc2o1 [Compound 54, 6-(6-fluoro-1H-indol-3-yl)-2-methylbenzo[d]oxazole]
IC50 [1]: 109 nM

Fc1ccc2c(-c3ccc4nc(CN5CCNCC5)[nH]c4c3)c[nH]c2c1 [Compound 59, 6-(6-fluoro-1H-indol-3-yl)-2-(piperazin-1-ylmethyl)-1H-benzo[d]imidazole]
IC50 [1]: 622 nM

NC(=O)Cc1nc2ccc(-c3c[nH]c4cc(F)ccc34)cc2[nH]1 [Compound 60, 2-(6-(6-fluoro-1H-indol-3-yl)-1H-benzo[d]imidazol-2-yl)acetamide]
IC50 [1]: 638 nM

CN1CCN(Cc2nc3cc(-c4c[nH]c5cc(F)ccc45)ccc3o2)CC1 [Compound 62, 5-(6-fluoro-1H-indol-3-yl)-2-((4-methylpiperazin-1-yl)methyl)benzo[d]oxazole]
IC50 [1]: 210 nM | IC50 [2]: 335 nM

NC(=O)Cn1c(=O)oc2cc(-c3c[nH]c4cc(F)ccc34)ccc21 [Compound 64, 2-(6-(6-fluoro-1H-indol-3-yl)-2-oxobenzo[d]oxazol-3(2H)-yl)acetamide]
IC50 [1]: 176 nM | IC50 [2]: 501 nM

O=c1[nH]c2ccc(-c3c[nH]c4cc(F)ccc34)cc2[nH]1 [Compound 65, 5-(6-fluoro-1H-indol-3-yl)-1H-benzo[d]imidazol-2(3H)-one]
IC50 [1]: 109 nM | IC50 [2]: 335 nM

Fc1ccc2c(-c3ccc4nc(CN5CCOCC5)oc4c3)c[nH]c2c1 [Compound 66, 6-(6-fluoro-1H-indol-3-yl)-2-(morpholinomethyl)benzo[d]oxazole]
IC50 [1]: 203 nM | IC50 [2]: 284 nM

O=S(=O)(CCN1CCOCC1)NCc1nc2ccc(-c3c[nH]c4cc(F)ccc34)cc2o1 [Compound 107, N-((6-(6-fluoro-1H-indol-3-yl)benzo[d]oxazol-2-yl)methyl)-2-morpholinoethanesulfonamide]
IC50 [3]: 2800 nM | IC50 [2]: 677 nM

CN1CCN(CCS(=O)(=O)NCc2nc3ccc(-c4c[nH]c5cc(F)ccc45)cc3o2)CC1 [Compound 122, N-((6-(6-fluoro-1H-indol-3-yl)benzo[d]oxazol-2-yl)methyl)-2-(4-methylpiperazin-1-yl)ethanesulfonamide]
IC50 [3]: 2090 nM | IC50 [2]: 344 nM

O=S(=O)(CCN1CCNCC1)NCc1nc2ccc(-c3c[nH]c4cc(F)ccc34)cc2o1 [Compound 123, N-((6-(6-fluoro-1H-indol-3-yl)benzo[d]oxazol-2-yl)methyl)-2-(piperazin-1-yl)ethanesulfonamide]
IC50 [3]: 1360 nM | IC50 [2]: 498 nM

O=S(=O)(CCN1CCCC1)NCc1nc2ccc(-c3c[nH]c4cc(F)ccc34)cc2o1 [Compound 124, N-((6-(6-fluoro-1H-indol-3-yl)benzo[d]oxazol-2-yl)methyl)-2-(pyrrolidin-1-yl)ethanesulfonamide]
IC50 [3]: 1210 nM | IC50 [2]: 334 nM

CS(=O)(=O)NCc1nc2ccc(-c3c[nH]c4ccc(F)cc34)cc2o1 [Compound 128, N-((6-(5-fluoro-1H-indol-3-yl)benzo[d]oxazol-2-yl)methyl)methanesulfonamide]
IC50 [3]: 6070 nM | IC50 [2]: 540 nM

O=C1NS(=O)(=O)c2ccc(-c3c[nH]c4cc(F)ccc34)cc21 [Compound 130, 5-(6-fluoro-1H-indol-3-yl)benzo[d]isothiazol-3(2H)-one 1,1-dioxide]
IC50 [3]: 2420 nM | IC50 [2]: 83 nM
